Assay results reported in paper PMC6792352, “Limited Chemical Structural Diversity Found to Modulate Thyroid Hormone Receptor in the Tox21 Chemical Library” (Environmental Health Perspectives, 2019).
Structures can show the parent of a compound that is named as a salt.

Assay: in vitro
Details: rat, gh3-tre-luc cells

Structure (SMILES)	CC50 at 24 h (AC50 (uM) modified / 1000) [µM]	also measured
NC(=S)NS(=O)(=O)c1ccc(N)cc1 [Sulfathiourea]	> 50	–
CN(C)c1cccc(O)c1 [3-Dimethylaminophenol]	> 90	–
Cc1ccc(C(=O)O)cc1[N+](=O)[O-] [4-Methyl-3-nitrobenzoic acid]	> 90	–
O=C(CCCN1CCN(c2ccc(F)cc2)CC1)NC1c2ccccc2CSc2ccccc21 (centres unmarked) [Monatepil]	11.9	–
C=CCC1([C@@H](C)CCC)C(=O)NC(=O)NC1=O [S-(-)-Secobarbital]	> 90	–
Cc1ccco1 [2-Methylfuran]	> 90	–
O=C1C(O)=C([C@H]2CC[C@H](c3ccc(Cl)cc3)CC2)C(=O)c2ccccc21 [Atovaquone]	8.49	–
CCCCSCCCC [Dibutyl sulfide]	> 90	–
OCC1CCCO1 (centres unmarked) [Tetrahydrofurfuryl alcohol]	> 90	–
CN(C)CCC#N [3-Dimethylaminopropionitrile]	> 90	–
OC1(c2ccc(Cl)c(C(F)(F)F)c2)CCN(CCCC(c2ccc(F)cc2)c2ccc(F)cc2)CC1 [Penfluridol]	3.98	–
CCCCCC(CO)CCC (centres unmarked) [2-Propyl-1-heptanol]	> 90	–
CCC(=O)NCC[C@@H]1CCc2ccc3c(c21)CCO3 [Ramelteon]	> 50	–
C/C=C1\NC(=O)[C@H]2CSSCC/C=C/[C@H](CC(=O)N[C@H](C(C)C)C(=O)N2)OC(=O)[C@H](C(C)C)NC1=O [Romidepsin]	0.0269	–
CC1(C)SC(C)(C)SC(C)(C)S1 [Trithioacetone]	> 90	–
C=CCOc1c(Br)cc(C(C)(C)c2cc(Br)c(OCC=C)c(Br)c2)cc1Br [Tetrabromobisphenol A diallyl ether]	> 50	–
CC(C)(C)C(=O)CCc1ccc(Cl)cc1 [1-(4-Chlorophenyl)-4,4-dimethyl-pentan-3-one]	> 90	–
COC(=O)C(C)N(C(=O)Cc1ccccc1)c1c(C)cccc1C (centres unmarked) [Benalaxyl]	> 90	–
CC(C)(C)OC(=O)c1ccccc1C(=O)O [tert-Butyl hydrogen phthalate]	> 90	–
Oc1cc(Cl)c(Cl)c(Cl)c1Cl [2,3,4,5-Tetrachlorophenol]	–	CC50 at 24 h (AC50 (uM) modified / 1000, Tox21_110001=Tox21_200105, viability, 1 nM T3 present, 24 h): 29.2 µM
CCOC(=O)C1OC1c1ccccc1 (centres unmarked) [Ethyl 3-phenylglycidate]	> 90	–
CCOC(CN1CCN(CC(C)C(=O)c2ccccc2)CC1)c1ccccc1 (centres unmarked) [Eprazinone dihydrochloride]	> 50	–

Structure (SMILES)	CC50 at 24 h (AC50 (uM) modified / 1000) [µM]	also measured
O=C(O)CCSCCC(=O)O [3,3'-Thiodipropionic acid]	> 90	–
Cc1cc(C(C)(C)C)c(O)c(C)c1Cn1c(=O)n(Cc2c(C)cc(C(C)(C)C)c(O)c2C)c(=O)n(Cc2c(C)cc(C(C)(C)C)c(O)c2C)c1=O [Cyanox CY 1790]	> 90	–
O=C(CCN1CCN(CCO)CC1)N1c2ccccc2Sc2ccc(C(F)(F)F)cc21 [Ftorpropazine]	16.3	–
C/C(=N\Cc1ccccc1)c1ccccc1O [Oletimol]	> 50	–
CCCCCCCCSCC [Ethyl octyl sulfide]	> 90	–
O=C1c2ccccc2C(=O)N1CO [2-(Hydroxymethyl)-1H-Isoindole-1,3(2H)-dione]	> 90	–
Cc1c(C(N)=O)cc([N+](=O)[O-])cc1[N+](=O)[O-] [Zoalene]	> 90	–
COC(=O)c1cc(Cl)ccc1[N+](=O)[O-] [Methyl 5-chloro-2-nitrobenzoate]	> 90	–
O=C(Nc1ccc(C(=O)O)c(O)c1)c1ccccc1 [Benzoylpas]	> 50	–
C=CCOc1ccccc1OCC(O)CNC(C)C (centres unmarked) [Oxprenolol hydrochloride]	> 20	–
OCCCBr [3-Bromo-1-propanol]	–	CC50 at 24 h (AC50 (uM) modified / 1000, Tox21_110001=Tox21_400042, viability, 1 nM T3 present, 24 h): > 90 µM
O=Cc1ccccc1Cl [2-Chlorobenzaldehyde]	> 90	–
ClC(Cl)(Cl)c1ccccc1 [Benzotrichloride]	> 90	–
CN1CCN(CC/C=C2/c3ccccc3Sc3ccc(S(=O)(=O)N(C)C)cc32)CC1 [Thiothixene]	10.7	–
O=C(O)C(F)(F)C(F)(F)C(F)(F)C(F)(F)C(F)(F)C(F)(F)C(F)(F)F [Ammonium perfluorooctanoate]	–	CC50 at 24 h (AC50 (uM) modified / 1000, Tox21_110001=Tox21_300595, viability, 1 nM T3 present, 24 h): > 90 µM
CN(C)N=O [N-Nitrosodimethylamine]	–	CC50 at 24 h (AC50 (uM) modified / 1000, Tox21_110001=Tox21_201663, viability, 1 nM T3 present, 24 h): > 90 µM
CNC(=O)NC [N,N'-Dimethylurea]	> 90	–
CCCCN(CCCC)N=O [N-Nitrosodibutylamine]	–	CC50 at 24 h (AC50 (uM) modified / 1000, Tox21_110001=Tox21_202334, viability, 1 nM T3 present, 24 h): > 90 µM
C=CCCCCCCCCCCCCCC [1-Hexadecene]	> 20	–
CCCCC [Pentane]	> 90	–
CN1CCC(=C2c3ccccc3CCc3cccnc32)CC1 [Azatadine]	47.7	–
Cc1ccc(O)c(C)c1 [2,4-Dimethylphenol]	> 90	–

Structure (SMILES)	CC50 at 24 h (AC50 (uM) modified / 1000) [µM]	also measured
NC(=O)CF [2-Fluoroacetamide]	–	CC50 at 24 h (AC50 (uM) modified / 1000, Tox21_110001=Tox21_301297, viability, 1 nM T3 present, 24 h): > 90 µM
CC1=C(C=O)C(C)(C)CCC1 [beta-Cyclocitral]	> 90	–
Cc1cccc(Oc2ccccc2)c1 [1-Methyl-3-phenoxybenzene]	> 90	–
Cc1ccc(N)cc1C [3,4-Dimethylaniline]	> 90	–
Oc1ccccc1-c1ccccc1 [2-Phenylphenol]	–	CC50 at 24 h (AC50 (uM) modified / 1000, Tox21_110001=Tox21_202415, viability, 1 nM T3 present, 24 h): > 90 µM
CC(CCO)CCc1ccccc1 (centres unmarked) [3-Methyl-5-phenylpentan-1-ol]	> 90	–
CCNC(=O)[C@@H]1CCCN1C(=O)[C@H](CCCNC(=N)N)NC(=O)[C@H](CC(C)C)NC(=O)[C@@H](CC(C)C)NC(=O)[C@H](Cc1ccc(O)cc1)NC(=O)[C@H](CO)NC(=O)[C@H](Cc1c[nH]c2ccccc12)NC(=O)[C@H](Cc1c[nH]cn1)NC(=O)[C@@H]1CCC(=O)N1 [Leuprolide acetate salt]	> 50	–
CC(C)CC(C)O (centres unmarked) [4-Methyl-2-pentanol]	> 90	–
ClCCCl [1,2-Dichloroethane]	> 90	–
O=C(Nc1ccc2c(c1)Cc1ccccc1-2)C(F)(F)F [N-(2-Fluorenyl)-2,2,2-trifluoroacetamide]	> 90	–
CCCCC(CC)C(=O)OCCOCCOCCOCCOC(=O)C(CC)CCCC (centres unmarked) [Tetraethylene glycol di(2-ethylhexanoate)]	> 90	–
CN(C)CCC=C1c2ccccc2COc2ccccc21 [Doxepin hydrochloride]	13.5	–
O=C(N[C@H](CO)[C@H](O)c1ccc([N+](=O)[O-])cc1)C(Cl)Cl [Chloramphenicol]	> 90	–
NCCNCCO [N-(Hydroxyethyl)ethylenediamine]	> 90	–
O=CNc1ccccc1 [Formanilide]	> 90	–
CCO[Si](CCCN)(OCC)OCC [3-Aminopropyltriethoxysilane]	> 90	–
CCCCCC(C)=O [2-Heptanone]	> 90	–
CNS(=O)(=O)Cc1ccc2[nH]cc(CCN(C)C)c2c1 [Sumatriptan]	> 50	–
CCCC[C@H]1CN(CC2CCOCC2)C(=O)OC12CCN(C1(C)CCN(C(=O)c3c(C)ncnc3C)CC1)CC2 [PharmaGSID_48521]	> 80	–
CCCc1c2oc(C(=O)O)cc(=O)c2cc2c(=O)cc(C(=O)O)n(CC)c12 [Nedocromil]	> 50	–
OCCN1C[C@H](O)[C@@H](O)[C@H](O)[C@H]1CO [Miglitol]	> 50	–
O=Cc1ccc2c(c1)OCO2 [Piperonal]	–	CC50 at 24 h (AC50 (uM) modified / 1000, Tox21_110001=Tox21_200120, viability, 1 nM T3 present, 24 h): > 90 µM

Structure (SMILES)	CC50 at 24 h (AC50 (uM) modified / 1000) [µM]	also measured
CC(Cl)C(=O)O (centres unmarked) [2-Chloropropanoic acid]	> 100	–
CCCCCOC(=O)CCCC [Pentyl valerate]	> 90	–
Oc1ccc(-c2ccc(O)cc2)cc1 [4,4'-Biphenyldiol]	> 90	–
O=C(CS)OCCOC(=O)CS [Ethane-1,2-diyl bis(sulfanylacetate)]	> 90	–
COc1ccc(COC(C)=O)cc1 [4-Methoxybenzyl acetate]	> 80	–
O=C1C(O)=C(O)C(=O)C(O)=C1O [Tetroquinone]	> 50	–
CCC(C)(C)C(=O)O [2,2-Dimethylbutanoic acid]	> 90	–
CC1(C)C(=O)NC(=O)N1CO [1-(Hydroxymethyl)-5,5-dimethylhydantoin]	> 90	–
O=CNC(N1CCN(C(NC=O)C(Cl)(Cl)Cl)CC1)C(Cl)(Cl)Cl (centres unmarked) [Triforine]	> 90	–
CC(C)CC#N [Isovaleronitrile]	> 90	–
O=C(O)CCCCCCCCCCC(=O)O [Dodecanedioic acid]	> 90	–
COc1cccc2c1C(=O)c1c(O)c3c(c(O)c1C2=O)C[C@@](O)(C(=O)CO)C[C@@H]3O[C@H]1C[C@H](N)[C@H](O[C@@H]2CCCCO2)[C@H](C)O1 [Pirarubicin]	1.64	–
CC(=O)C(C)C [3-Methyl-2-butanone]	> 100	–
Nc1cc([N+](=O)[O-])ccc1C(=O)O [4-Nitroanthranilic acid]	> 90	–
C=CCOCC(O)CS(=O)(=O)O (centres unmarked) [Sodium 3-(allyloxy)-2-hydroxypropanesulphonate]	> 90	–
CNC(=O)Oc1ccccc1C(C)C [Isoprocarb]	–	CC50 at 24 h (AC50 (uM) modified / 1000, Tox21_110001=Tox21_301361, viability, 1 nM T3 present, 24 h): > 90 µM
CC(C)Cc1ccc([C@H](C)C(=O)O)cc1 [Dexibuprofen]	> 50	–
Nc1c(Br)cc(Br)cc1CN[C@H]1CC[C@H](O)CC1 [Ambroxolhydrochloride]	> 50	–
CCN(CC)CC#CCOC(=O)C(O)(c1ccccc1)C1CCCCC1 (centres unmarked) [Oxybutynin chloride]	15.3	–
Cc1ccccc1N=O [2-Nitrosotoluene]	> 90	–
